US10322131B2, “Hydroxyacid derivatives, a process for their preparation and pharmaceutical compositions containing them” (LES LABORATOIRES SERVIER, priority 2015, dated 2019)

Tests used:
[1] = system: H929 cells; experiment: In vitro cytotoxicity (MTT) on H929 multiple myeloma tumour line; format: cell-based; details: exposed 48 hours, Microculture Tetrazolium Assay
Protocol: The cytotoxicity studies were carried out on the H929 multiple myeloma tumour line.
The cells are distributed onto microplates and exposed to the test compounds for 48 hours.
The cell viability is then quantified by a colorimetric assay, the Microculture Tetrazolium Assay (Cancer Res., 1987, 47, 939-942).

[2] = biological target: Mcl-1 protein (Homo sapiens, UniProt Q07820); experiment: Inhibition of Mcl-1 by the fluorescence polarisation technique; format: binding; details: fluorescence polarisation test; Fluorescein labelled ligand 1 nM, Mcl-1 protein 5 nM, ~2 hours at r.t.; read-out: IC50 (M) Mcl-1 FP
In short: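 Competitive FP displacement of fluorescein-labelled peptide ligand (1 nM final) from Mcl-1 (5 nM final) in HEPES 10 mM, 150 mM NaCl, 0.05% Tween 20, pH 7.4, 5% DMSO final. Read after ~2 h at r.t.; IC50 from 11-point 4-parameter logistic fit of % mP reduction.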

Chain of Mcl-1 protein (Q07820 whole entry): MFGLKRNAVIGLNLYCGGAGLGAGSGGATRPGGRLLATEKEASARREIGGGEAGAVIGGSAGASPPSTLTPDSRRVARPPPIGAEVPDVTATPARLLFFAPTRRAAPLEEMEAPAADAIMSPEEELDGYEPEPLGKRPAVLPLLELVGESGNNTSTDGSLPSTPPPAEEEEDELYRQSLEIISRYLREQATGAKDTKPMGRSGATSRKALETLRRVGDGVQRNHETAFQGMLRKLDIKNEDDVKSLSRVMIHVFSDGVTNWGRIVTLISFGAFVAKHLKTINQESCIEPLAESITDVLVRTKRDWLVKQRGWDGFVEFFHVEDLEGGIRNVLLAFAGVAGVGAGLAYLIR

IC50 [2]: 4.1e-09 M
Compound: COC1OC(COc2ccc(-c3nccc(COc4ccccc4CC(Oc4ncnc5sc(-c6ccc(F)cc6)c(-c6ccc(OCCN7CCN(C)CC7)c(Cl)c6C)c45)C(=O)O)n3)cc2)C(O)C(O)C1O [Example 18, methyl 6-O-{4-[4-({2-[(2R)-2-carboxy-2-{[(5Sa)-5-{3-chloro-2-methyl-4-[2-(4-methylpiperazin-1-yl)ethoxy]phenyl}-6-(4-flurophenyl)thieno[2,3-d]pyrimidin-4-yl]oxy}ethyl]phenoxy}methyl)pyrimidin-2-yl]phenyl}-α-D-mannopyranoside]
IC50 [1]: 13.9 nM
